{"source": "patent US11034735B2", "about": "“Hybrid peptide, set of hybrid peptides, composition, uses of the hybrid peptide, method for inducing an immune response and kits” (priority 2017, dated 2021)", "key": {"serum of BALB/c mice": {"tested_on": "serum of BALB/c mice", "assay": "Dot-ELISA, synthetic peptides with serum of immunized BALB/c mice", "format": "in vivo", "parameters": "key to Peptide Reactivity, Mice serum inoculated with isolated peptides 1 / Peptide Reactivity, Mice serum inoculated with isolated peptides 2 / Peptide Reactivity, Mice serum inoculated with isolated peptides 3 / Peptide Reactivity, Mice serum inoculated with pool / Peptide Reactivity, Mice serum inoculated with Saline (Negative Control) / Reaction with pool of peptides, Mouse 1 serum / Reaction with pool of peptides, Mouse 2 serum / Reaction with pool of peptides, Mouse 3 serum: — = Did not react; X = Reacted", "conditions": "for Peptide Reactivity, Mice serum inoculated with pool / Peptide Reactivity, Mice serum inoculated with isolated peptides 1 / Peptide Reactivity, Mice serum inoculated with isolated peptides 2 / Peptide Reactivity, Mice serum inoculated with isolated peptides 3 / Peptide Reactivity, Mice serum inoculated with Saline (Negative Control) / Reaction with pool of peptides, Mouse 1 serum / Reaction with pool of peptides, Mouse 2 serum / Reaction with pool of peptides, Mouse 3 serum: Dot-ELISA; for Peptide Reactivity, Mice serum inoculated with pool: mice inoculated with pool of all 8 hybrid peptides; for Peptide Reactivity, Mice serum inoculated with isolated peptides 1: serum of mouse 1 inoculated with the same isolated peptide; for Peptide Reactivity, Mice serum inoculated with isolated peptides 1 / Peptide Reactivity, Mice serum inoculated with isolated peptides 2 / Peptide Reactivity, Mice serum inoculated with isolated peptides 3: serum 1:25; for Peptide Reactivity, Mice serum inoculated with isolated peptides 2: serum of mouse 2 inoculated with the same isolated peptide; for Peptide Reactivity, Mice serum inoculated with isolated peptides 3: serum of mouse 3 inoculated with the same isolated peptide; for Peptide Reactivity, Mice serum inoculated with Saline (Negative Control): serum of saline-inoculated mice; for Reaction with pool of peptides, Mouse 1 serum / Reaction with pool of peptides, Mouse 2 serum / Reaction with pool of peptides, Mouse 3 serum: pool of peptides as antigen; for Reaction with pool of peptides, Mouse 1 serum: serum of mouse 1 inoculated with the labelled peptide; for Reaction with pool of peptides, Mouse 2 serum: serum of mouse 2 inoculated with the labelled peptide; for Reaction with pool of peptides, Mouse 3 serum: serum of mouse 3 inoculated with the labelled peptide", "description": "(§1) The immunogenicity of each peptide was checked immunizing BALB/c mice, approximately six weeks old, with […] of protein (Machado et al., 1994). The mice were divided into groups of three animals each. The groups were: P28, P41, P42, P44, P50, P51, P53, P54, Pool (mice inoculated with a pool of peptides, in the case with all 8 hybrid peptides) and negative control group. For inoculations, the peptides were emulsified in Freund's complete adjuvant (Sigma) and inoculated intramuscularly in the quadriceps. Two further immunizations, on the 14th and 28th day after inoculation, were performed using incomplete Freund's adjuvant (Sigma). Each inoculation was carried out using 10 μg/mL of each peptide. Negative control mice were inoculated with sterile saline in place of the peptides and also emulsified in adjuvant. Blood samples were collected by intracardiac puncture on the 10th day after the last immunization and the sera obtained were stored at −20° C. until evaluated by Dot-ELISA and Western-blotting assays.\n(§2) Synthetic peptides were used as antigen in the Dot-ELISA technique to verify their ability to react with specific antibodies present in the serum of BALB/c mice, as well as in calf serum, all immunized. The technique was performed as described by Machado et al. (1994), with minor modifications. Briefly, small nitrocellulose discs were cut using a paper punch and each disc arranged in a flat bottom 24-well culture plate well. 4 μg/mL of each synthetic peptide alone, as well as the peptide pool, were deposited on each disc. The discs were dried at room temperature and then blocked for 12 hours at room temperature with […] TBS buffer (0.1 M Tris, 0.1 M NaCl and 0.5% Tween 20; TBS-Tween 20), plus 5% skim milk powder. Test sera were diluted 1:25 (mice and calf) in TBS-Tween 20 containing 5% skim milk powder and incubated for 120 minutes at room temperature and under constant stirring. Then the discs were subjected to two washes with TBS-Tween 20 plus 5% skim milk powder and one wash with TBS-Tween 20 (5 min interval between each wash). To each mouse serum disc was added the alkaline phosphate-coupled anti-mouse conjugate (anti-mouse IgG goat IgG, Sigma A-3562) diluted 1:30,000 in TBS-Tween 20 plus 5% of skim milk powder. To calf serum-containing discs, it was added alkaline phosphate-coupled anti-bovine conjugate (anti-cattle IgG rabbit IgG, Sigma A-0705) diluted 1:30,000 in TBS-Tween 20, plus 5% skim milk powder. After one hour incubation with the appropriate conjugates, washes were followed as in the previous step."}, "calf serum [1]": {"tested_on": "calf serum", "assay": "Dot-ELISA, synthetic peptides with serum of calf immunized with peptide pool", "format": "in vivo", "parameters": "key to Peptide Reactivity, Calf serum inoculated with pool: — = Did not react; X = Reacted", "conditions": "for Peptide Reactivity, Calf serum inoculated with pool: Dot-ELISA, peptide as antigen, calf inoculated with pool SEQ ID NO: 20, 21, 23, 25, 26", "description": "(§3) The immunogenicity of the synthetic peptides was verified by immunizing a previously tested calf with negative results for Anaplasma marginale, Babesia bovis and Babesia bigemina by serology and PCR. For inoculations, a peptide pool (SEQ ID NO: 20, SEQ ID NO: 21, SEQ ID NO: 23, SEQ ID NO: 25 and SEQ ID NO: 26) was emulsified in Freund's complete adjuvant (Sigma) and, inoculated intramuscularly in the quadriceps. Two further immunizations, on the 14th and 28th day after inoculation, were performed using incomplete Freund's adjuvant (Sigma). Each inoculation was done using 100 μg/mL of each peptide. Blood samples were collected by jugular puncture on the 10th day after the last immunization and the sera obtained were stored at −20° C. until evaluated by Dot-ELISA and Western-blotting assays.\nas §2"}, "A. marginale antigen": {"tested_on": "A. marginale antigen", "assay": "Indirect immunofluorescence reaction, sera of inoculated mice", "format": "in vivo", "conditions": "serum 1:25", "description": "as §1\nThe prepared A. marginale antigen-containing blood smear slides were removed from the freezer and thawed at room temperature. […] After drying the slides, they were coverslipped using a buffered glycerine at a 9:1 ratio of glycerine/0.5 M carbonate-bicarbonate buffer pH 9.6 and then observed under a fluorescence microscope (Olympus, BX-FLA)."}, "mouse serum": {"tested_on": "mouse serum", "assay": "Western blotting, synthetic peptides with serum of inoculated mice", "conditions": "in vivo", "description": "as §1\n(§4) Samples of synthetic peptides were analyzed by Western blotting. To this end, initially, the samples were submitted to polyacrylamide gel electrophoresis under denaturing conditions, according to the technique recommended by Laemmli (1970). Based on the sample volume 2× concentrated sample buffer (250 mM Tris-HCl pH 6.8, 40% glycerol, 8% SDS, 20% β-mercaptoethanol and 0.008% bromophenol blue) was added. The samples were homogenized, incubated for 5 minutes at 100° C. and applied to the gel. The separation gel was prepared at a concentration of 12% polyacrylamide in buffer (1.875 M Tris, pH 8.8 and 1% SDS) and 5% polyacrylamide for buffer packaging gel (1.875 M Tris, pH 6.8 and 0.5% SDS). Electrophoresis was performed in Tris-Glycine Running Buffer (50 mM Tris, pH 8.6, 1.92 M Glycine and 1% SDS) at 100 V for up to 3 hours and 30 minutes at 0° C. in the Mini-Protean II system (Bio-Rad).\nSynthetic peptides processed on the polyacrylamide gel (SDS-PAGE) were transferred to the nitrocellulose membrane for analysis by Wester blot (TOWBIN et al., 1979). The nitrocellulose membrane (Merck) was previously incubated in ice cold transfer buffer (0.58% Tris Base pH 8.3, 20% methanol and 0.29% glycine). For this, the membrane was placed in the “Mini Trans-Blot” (Bio-Rad) electrotransfer system containing the same buffer and the transfer was performed at 100 V for 90 minutes. The membrane was incubated in TBS-Tween (10 mM Tris-HCl pH 7.5; 150 mM NaCl, 0.05% Tween-20) plus 5% skim milk powder for 12 hours at 4° C. under low agitation, for saturation of non-specific binding sites. The membrane was then incubated with each serum from each mouse alone or incubated with calf serum for 2 hours at room temperature under slow stirring. […]"}, "[2]": {"tested_on": "bovine serum serologically positive / negative / vaccinated for A. marginale", "assay": "Dot-ELISA, synthetic peptides with sera of cattle serologically positive, negative or vaccinated for A. marginale", "format": "binding", "conditions": "peptide as antigen", "description": "as §2"}, "calf serum [3]": {"tested_on": "calf serum", "assay": "Western blotting, synthetic peptides with calf serum", "format": "in vivo", "conditions": "label = antigen on blot", "description": "as §3, §4\nSynthetic peptides processed on the polyacrylamide gel (SDS-PAGE) were transferred to the nitrocellulose membrane for analysis by Wester blot (TOWBIN et al., 1979). The nitrocellulose membrane (Merck) was previously incubated in ice cold transfer buffer (0.58% Tris Base pH 8.3, 20% methanol and 0.29% glycine). For this, the membrane was placed in the “Mini Trans-Blot” (Bio-Rad) electrotransfer system containing the same buffer and the transfer was performed at 100 V for 90 minutes. The membrane was incubated in TBS-Tween (10 mM Tris-HCl pH 7.5; 150 mM NaCl, 0.05% Tween-20) plus 5% skim milk powder for 12 hours at 4° C. under low agitation, for saturation of non-specific binding sites. The membrane was then incubated with each serum from each mouse alone or incubated with calf serum for 2 hours at room temperature under slow stirring. It was then subjected to three consecutive 10-minute washes with the same solution under slow agitation. […]"}}}
{"sequence": "GASTDDAAAAAKIVAMAYGRGGGGTIVPVKTFDDGALTYFQFYDNNKVIP (Synthetic hybrid peptide) [P50]", "values": [{"measurement": "Peptide Reactivity, Mice serum inoculated with pool", "setting": "serum of BALB/c mice; peptide as antigen", "value": "—"}, {"measurement": "Peptide Reactivity, Mice serum inoculated with isolated peptides 1", "setting": "serum of BALB/c mice; peptide as antigen", "value": "—"}, {"measurement": "Peptide Reactivity, Mice serum inoculated with isolated peptides 2", "setting": "serum of BALB/c mice; peptide as antigen", "value": "—"}, {"measurement": "Peptide Reactivity, Mice serum inoculated with isolated peptides 3", "setting": "serum of BALB/c mice; peptide as antigen", "value": "—"}, {"measurement": "Peptide Reactivity, Mice serum inoculated with Saline (Negative Control)", "setting": "serum of BALB/c mice; peptide as antigen", "value": "—"}, {"measurement": "Reaction with pool of peptides, Mouse 1 serum", "setting": "serum of BALB/c mice", "value": "—"}, {"measurement": "Reaction with pool of peptides, Mouse 2 serum", "setting": "serum of BALB/c mice", "value": "—"}, {"measurement": "Reaction with pool of peptides, Mouse 3 serum", "setting": "serum of BALB/c mice", "value": "—"}, {"measurement": "Peptide Reactivity, Calf serum inoculated with pool", "setting": "calf serum [1]", "value": "—"}, {"measurement": "Indirect immunofluorescence reaction for A. marginale, inoculated mice", "setting": "A. marginale antigen", "value": "positive"}]}
{"sequence": "LAESTEGNLEEVWILGKGGGGDELSKKVCGKGTTSGSTNQCG (Synthetic hybrid peptide) [P42]", "values": [{"measurement": "Peptide Reactivity, Mice serum inoculated with pool", "setting": "serum of BALB/c mice; peptide as antigen", "value": "—"}, {"measurement": "Peptide Reactivity, Mice serum inoculated with isolated peptides 1", "setting": "serum of BALB/c mice; peptide as antigen", "value": "X"}, {"measurement": "Peptide Reactivity, Mice serum inoculated with isolated peptides 2", "setting": "serum of BALB/c mice; peptide as antigen", "value": "—"}, {"measurement": "Peptide Reactivity, Mice serum inoculated with isolated peptides 3", "setting": "serum of BALB/c mice; peptide as antigen", "value": "—"}, {"measurement": "Peptide Reactivity, Mice serum inoculated with Saline (Negative Control)", "setting": "serum of BALB/c mice; peptide as antigen", "value": "—"}, {"measurement": "Reaction with pool of peptides, Mouse 1 serum", "setting": "serum of BALB/c mice", "value": "—"}, {"measurement": "Reaction with pool of peptides, Mouse 2 serum", "setting": "serum of BALB/c mice", "value": "—"}, {"measurement": "Reaction with pool of peptides, Mouse 3 serum", "setting": "serum of BALB/c mice", "value": "—"}, {"measurement": "Dot-ELISA reaction of sera from mice inoculated with hybrid peptides alone", "setting": "serum of BALB/c mice; peptide as antigen", "value": "reacted"}, {"measurement": "Peptide Reactivity, Calf serum inoculated with pool", "setting": "calf serum [1]", "value": "—"}, {"measurement": "Indirect immunofluorescence reaction for A. marginale, inoculated mice", "setting": "A. marginale antigen", "value": "positive"}, {"measurement": "Western blotting reaction of serum of mice inoculated with synthetic peptide", "setting": "mouse serum", "value": "reacted"}]}
{"sequence": "SKVASVEYILAARGGGGQVDRLANALGKGGGGAMGDSVHWKVKPVDNKLFIMP (Synthetic hybrid peptide) [P53]", "values": [{"measurement": "Peptide Reactivity, Mice serum inoculated with pool", "setting": "serum of BALB/c mice; peptide as antigen", "value": "X"}, {"measurement": "Peptide Reactivity, Mice serum inoculated with isolated peptides 1", "setting": "serum of BALB/c mice; peptide as antigen", "value": "—"}, {"measurement": "Peptide Reactivity, Mice serum inoculated with isolated peptides 2", "setting": "serum of BALB/c mice; peptide as antigen", "value": "—"}, {"measurement": "Peptide Reactivity, Mice serum inoculated with isolated peptides 3", "setting": "serum of BALB/c mice; peptide as antigen", "value": "—"}, {"measurement": "Peptide Reactivity, Mice serum inoculated with Saline (Negative Control)", "setting": "serum of BALB/c mice; peptide as antigen", "value": "—"}, {"measurement": "Reaction with pool of peptides, Mouse 1 serum", "setting": "serum of BALB/c mice", "value": "X"}, {"measurement": "Reaction with pool of peptides, Mouse 2 serum", "setting": "serum of BALB/c mice", "value": "X"}, {"measurement": "Reaction with pool of peptides, Mouse 3 serum", "setting": "serum of BALB/c mice", "value": "X"}, {"measurement": "Dot-ELISA reaction of mouse sera inoculated with the peptide pool", "setting": "serum of BALB/c mice; peptide as antigen, pool of all 8 hybrid peptides", "value": "reacted"}, {"measurement": "Reaction of sera from serologically positive cattle for A. marginale with synthetic peptide", "setting": "[2]", "value": "reacted"}, {"measurement": "Western blotting reactivity of calf serum inoculated with the peptide pool", "setting": "calf serum [3]", "value": "showed reactivity"}, {"measurement": "Peptide Reactivity, Calf serum inoculated with pool", "setting": "calf serum [1]", "value": "X"}, {"measurement": "Dot-ELISA reaction of calf serum inoculated with the peptide pool with the antigen", "setting": "calf serum [1]; label = antigen on disc", "value": "reacted"}, {"measurement": "Western blotting reaction of serum of mice inoculated with synthetic peptide", "setting": "mouse serum", "value": "reacted"}]}
